Test results from PubChem BioAssay (NCI).
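Exposure lasted 48 hours, with cells grown in 96-well plates and compounds tested at five concentrations. GI50: concentration for 50% inhibition of growth. Definition used: TGI = concentration required for complete inhibition of growth.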

Columns and labels:
Assay in all cases: inhibition of tumour cell growth, NCI panel, 48 h
786-0 renal = tested on: 786-0 renal
A498 renal = tested on: A498 renal
A549 NSCLC = tested on: A549 NSCLC
ACHN renal = tested on: ACHN renal
BT-549 breast = tested on: BT-549 breast
CAKI-1 renal = tested on: CAKI-1 renal
CCRF-CEM leukemia = tested on: CCRF-CEM leukemia
COLO 205 colon = tested on: COLO 205 colon
DU-145 prostate = tested on: DU-145 prostate
EKVX NSCLC = tested on: EKVX NSCLC
HCC-2998 colon = tested on: HCC-2998 colon
HCT-116 colon = tested on: HCT-116 colon
HCT-15 colon = tested on: HCT-15 colon
HL-60(TB) leukemia = tested on: HL-60(TB) leukemia
HOP-62 NSCLC = tested on: HOP-62 NSCLC
HOP-92 NSCLC = tested on: HOP-92 NSCLC
HS 578T breast = tested on: HS 578T breast
HT29 colon = tested on: HT29 colon
IGROV1 ovarian = tested on: IGROV1 ovarian
K-562 leukemia = tested on: K-562 leukemia
KM12 colon = tested on: KM12 colon
LOX IMVI melanoma = tested on: LOX IMVI melanoma
M14 melanoma = tested on: M14 melanoma
MALME-3M melanoma = tested on: MALME-3M melanoma
MCF7 breast = tested on: MCF7 breast
MDA-MB-231 breast = tested on: MDA-MB-231 breast
MDA-MB-435 = tested on: MDA-MB-435
MOLT-4 leukemia = tested on: MOLT-4 leukemia
NCI-H226 lung = tested on: NCI-H226 lung
NCI-H23 lung = tested on: NCI-H23 lung
NCI-H460 lung = tested on: NCI-H460 lung
NCI-H522 lung = tested on: NCI-H522 lung
NCI/ADR-RES ovarian = tested on: NCI/ADR-RES ovarian
OVCAR-3 ovarian = tested on: OVCAR-3 ovarian
OVCAR-4 ovarian = tested on: OVCAR-4 ovarian
OVCAR-5 ovarian = tested on: OVCAR-5 ovarian
OVCAR-8 ovarian = tested on: OVCAR-8 ovarian
PC-3 prostate = tested on: PC-3 prostate
RPMI-8226 leukemia = tested on: RPMI-8226 leukemia
RXF 393 renal = tested on: RXF 393 renal
SF-268 CNS = tested on: SF-268 CNS
SF-295 CNS = tested on: SF-295 CNS
SF-539 CNS = tested on: SF-539 CNS
SK-MEL-2 melanoma = tested on: SK-MEL-2 melanoma
SK-MEL-28 melanoma = tested on: SK-MEL-28 melanoma
SK-MEL-5 melanoma = tested on: SK-MEL-5 melanoma
SK-OV-3 ovarian = tested on: SK-OV-3 ovarian
SN12C renal = tested on: SN12C renal
SNB-19 CNS = tested on: SNB-19 CNS
SNB-75 CNS = tested on: SNB-75 CNS
SR leukemia = tested on: SR leukemia
SW-620 colon = tested on: SW-620 colon
T-47D breast = tested on: T-47D breast
TK-10 renal = tested on: TK-10 renal
U251 CNS = tested on: U251 CNS
UACC-257 melanoma = tested on: UACC-257 melanoma
UACC-62 melanoma = tested on: UACC-62 melanoma
UO-31 renal = tested on: UO-31 renal

With Clc1cnc(Nc2ccc(OCCN3CCCC3)cc2)nc1NCc1ccco1 the GI50 (786-0 renal) was 3.15 µM, the TGI (786-0 renal) was 13.3 µM and the GI50 (A498 renal) was 1.45 µM. The TGI (A498 renal) was 3.88 µM, the GI50 (A549 NSCLC) was 2.56 µM and the TGI (A549 NSCLC) was 16.3 µM. It also gave a GI50 (ACHN renal) of 2.37 µM, a TGI (ACHN renal) of 26.4 µM and a GI50 (BT-549 breast) of 2.29 µM. The TGI (BT-549 breast) was 7.47 µM, the GI50 (CAKI-1 renal) was 1.63 µM and the TGI (CAKI-1 renal) was 26.6 µM. It also gave a GI50 (CCRF-CEM leukemia) of 2.54 µM, a TGI (CCRF-CEM leukemia) of 9.5 µM and a GI50 (COLO 205 colon) of 1.71 µM. For the same compound, the TGI (COLO 205 colon) was 4.05 µM, the GI50 (DU-145 prostate) was 3.43 µM and the TGI (DU-145 prostate) was greater than 100 µM. It also gave a GI50 (EKVX NSCLC) of 2.1 µM, a TGI (EKVX NSCLC) of 6.47 µM and a GI50 (HCC-2998 colon) of 2.92 µM. It also gave a TGI (HCC-2998 colon) of 9.59 µM, a GI50 (HCT-116 colon) of 2.56 µM and a TGI (HCT-116 colon) of 28.6 µM. It also gave a GI50 (HCT-15 colon) of 2.72 µM, a TGI (HCT-15 colon) of 11.8 µM and a GI50 (HL-60(TB) leukemia) of 1.03 µM. For the same compound, the TGI (HL-60(TB) leukemia) was 5.01 µM, the GI50 (HOP-62 NSCLC) was 2.24 µM and the TGI (HOP-62 NSCLC) was 6.58 µM. It also gave a GI50 (HOP-92 NSCLC) of 1.14 µM, a TGI (HOP-92 NSCLC) of 6.6 µM and a GI50 (HS 578T breast) of 1.39 µM. It also gave a TGI (HS 578T breast) of 5.18 µM, a GI50 (HT29 colon) of 2.19 µM and a TGI (HT29 colon) of 9.18 µM. It also gave a GI50 (IGROV1 ovarian) of 2.5 µM, a TGI (IGROV1 ovarian) of 12.8 µM and a GI50 (K-562 leukemia) of 3.19 µM. It also gave a TGI (K-562 leukemia) of 52.6 µM, a GI50 (KM12 colon) of 0.643 µM and a TGI (KM12 colon) of 10.1 µM. For the same compound, the GI50 (LOX IMVI melanoma) was 1.16 µM, the TGI (LOX IMVI melanoma) was 4.26 µM and the GI50 (M14 melanoma) was 2.46 µM. It also gave a TGI (M14 melanoma) of 9.55 µM, a GI50 (MALME-3M melanoma) of 2.1 µM and a TGI (MALME-3M melanoma) of 5.79 µM. For the same compound, the GI50 (MCF7 breast) was 1.51 µM, the TGI (MCF7 breast) was 10.2 µM and the GI50 (MDA-MB-231 breast) was 2.48 µM. The TGI (MDA-MB-231 breast) was 13.5 µM, the GI50 (MDA-MB-435) was 2.73 µM and the TGI (MDA-MB-435) was 11.5 µM. It also gave a GI50 (MOLT-4 leukemia) of 1.86 µM, a TGI (MOLT-4 leukemia) of 8.4 µM and a GI50 (NCI-H226 lung) of 0.671 µM. For the same compound, the TGI (NCI-H226 lung) was 11.3 µM, the GI50 (NCI-H23 lung) was 1.84 µM and the TGI (NCI-H23 lung) was 5.75 µM. The GI50 (NCI-H460 lung) was 2.04 µM, the TGI (NCI-H460 lung) was 5.36 µM and the GI50 (NCI-H522 lung) was 1.75 µM. It also gave a TGI (NCI-H522 lung) of 3.96 µM, a GI50 (NCI/ADR-RES ovarian) of 3.15 µM and a TGI (NCI/ADR-RES ovarian) of 9.53 µM. For the same compound, the GI50 (OVCAR-3 ovarian) was 3.01 µM, the TGI (OVCAR-3 ovarian) was 9.75 µM and the GI50 (OVCAR-4 ovarian) was 2.86 µM. For the same compound, the TGI (OVCAR-4 ovarian) was 13.9 µM, the GI50 (OVCAR-5 ovarian) was 1.95 µM and the TGI (OVCAR-5 ovarian) was greater than 100 µM. The GI50 (OVCAR-8 ovarian) was 3.54 µM, the TGI (OVCAR-8 ovarian) was 13.7 µM and the GI50 (PC-3 prostate) was 2.66 µM. It also gave a TGI (PC-3 prostate) of 8.53 µM, a GI50 (RPMI-8226 leukemia) of 2.25 µM and a TGI (RPMI-8226 leukemia) of 5.49 µM. It also gave a GI50 (RXF 393 renal) of 1.25 µM, a TGI (RXF 393 renal) of 3.24 µM and a GI50 (SF-268 CNS) of 2.33 µM. For the same compound, the TGI (SF-268 CNS) was 6.47 µM, the GI50 (SF-295 CNS) was 2.18 µM and the TGI (SF-295 CNS) was 6.63 µM. For the same compound, the GI50 (SF-539 CNS) was 1.67 µM, the TGI (SF-539 CNS) was 3.64 µM and the GI50 (SK-MEL-2 melanoma) was 1.8 µM. For the same compound, the TGI (SK-MEL-2 melanoma) was 3.48 µM, the GI50 (SK-MEL-28 melanoma) was 3.29 µM and the TGI (SK-MEL-28 melanoma) was 10.7 µM. For the same compound, the GI50 (SK-MEL-5 melanoma) was 1.62 µM, the TGI (SK-MEL-5 melanoma) was 3.42 µM and the GI50 (SK-OV-3 ovarian) was 3.62 µM. For the same compound, the TGI (SK-OV-3 ovarian) was 34.1 µM, the GI50 (SN12C renal) was 2.42 µM and the TGI (SN12C renal) was 10.6 µM. For the same compound, the GI50 (SNB-19 CNS) was 3.51 µM, the TGI (SNB-19 CNS) was 13.5 µM and the GI50 (SNB-75 CNS) was 1.91 µM. It also gave a TGI (SNB-75 CNS) of 4.27 µM, a GI50 (SR leukemia) of 1.4 µM and a TGI (SR leukemia) of 6.61 µM. It also gave a GI50 (SW-620 colon) of 2.26 µM, a TGI (SW-620 colon) of 13 µM and a GI50 (T-47D breast) of 3.14 µM. For the same compound, the TGI (T-47D breast) was 10.6 µM, the GI50 (TK-10 renal) was 2.28 µM and the TGI (TK-10 renal) was 11.8 µM. For the same compound, the GI50 (U251 CNS) was 2.81 µM, the TGI (U251 CNS) was 11.4 µM and the GI50 (UACC-257 melanoma) was 2.44 µM. The TGI (UACC-257 melanoma) was 6.32 µM, the GI50 (UACC-62 melanoma) was 1.83 µM and the TGI (UACC-62 melanoma) was 3.73 µM. For the same compound, the GI50 (UO-31 renal) was 1.87 µM and the TGI (UO-31 renal) was 11.6 µM.
